Data set [1] in a line: Plasma concentration of apraglutide (LC-MS/MS) in Phase 2 SBS-IF trial (Example 5). Format: in vivo. To be noted: human; for level at 168 h: sc, read-out: Mean plasma concentration before the second dose (Ctrough). The text has this: Blood samples for analysis of plasma concentration of apraglutide and fasting plasma L-citrulline, a marker of enterocyte mass, were collected at baseline, during first and second treatment injection, four days after first treatment injection and at the end of treatment.
Apraglutide and L-citrulline were quantified using a validated LC-MS-based method. For apraglutide, the analytical method used solid-phase extraction purification of the intact apraglutide molecule and its internal standard. The compounds were identified and quantified using reversed-phase HPLC with MS/MS detection using an AB Sciex API 5000 quadrupole mass spectrometer. For samples below the limit of quantification of 5.00 ng/mL, compounds were identified and quantified using reversed-phase UHPLC with MS/MS detection using an AB Sciex API 5500 quadrupole mass spectrometer. For L-citrulline, the analytical method used protein precipitation extraction of L-Citrulline and its internal standard. The compounds were identified and quantified using Hilic HPLC with MS/MS detection using an AB Sciex API 5000 quadrupole mass spectrometer.

A short description of data set [2]: Phase I trial, single subcutaneous 5 mg dose in subjects with severe renal impairment vs normal renal function (Example 10), pharmacokinetics. To be noted: for Geometric mean ratio for AUCinf, severe renal impairment vs normal renal function / Geometric mean ratio for Cmax, severe renal impairment vs normal renal function: single SC 5 mg; for Geometric Mean Ratio of AUCinf / Geometric Mean Ratio of Cmax: single subcutaneous dose 5 mg apraglutide, severe renal impairment (Cohort 1) vs normal renal function (Cohort 2). Format: in vivo, human. As for the experimental part:
(§1) The following non-limiting example describes a Phase I clinical trial in which subjects with normal and impaired kidney function are treated with the apraglutide formulations of the present disclosure. This Phase I clinical trial investigates the pharmacokinetics and safety of a single subcutaneous dose of 5 mg apraglutide in subjects with varying degrees of renal function. The renal function is calculated by the estimated glomerular filtration rate (eGFR) according to the Chronic Kidney Disease Epidemiology (CKD-EPI) Creatinine Equation.
(§2) The trial is a two-stage, open label, multi-center, non-randomized, Phase I trial. In Part 1 of the trial, 8 subjects with severe renal impairment (Cohort 1) and 6 subjects with normal renal function (Cohort 2) will be administered a single dose 5 mg apraglutide of the present disclosure. In Part 2 of the trial, 8 subjects with moderate renal impairment (Cohort 3) and 8 subjects with mild renal impairment (Cohort 4) will be administered a single dose 5 mg apraglutide of the present disclosure. Subjects will be enrolled if the geometric mean ratio (GMR) of AUCinf or AUClast for the severe renal impairment group compared to the control group is ≥2.
Patient eligibility is assessed during a screening visit. The main inclusion criteria are: • 1. All Participants • a. Age between 18 and 75 years inclusive • b. Subjects who are willing and able to comply with the study procedures • c. Subjects able to understand and willing to sign the informed consent • d. Body mass index (BMI) of ≥17.5 to ≤40 kg/m2; and a total body weight of >50 kg (110 lb). • e. […] Sterilized or infertile or postmenopausal females. • f. […] Healthy participants • a. No clinically relevant abnormalities (medical history, vital signs, ECG, safety labs) • b. eGFR measured by CKD-EPI≥90 mL/min/1.73 m2 at two screening visits • c. […] Participants with impaired renal function • a. Severe renal impairment: eGFR<30 mL/min/1.73 m2, but not requiring hemodialysis • b. Moderate renal impairment: eGFR≥30 mL/min/1.73 m2 and <60 mL/min/1.73 m2 • c. Mild renal impairment: eGFR≥60 and <90 mL/min/1.73 m2
Primary endpoint efficacy assessments will be performed at 240 hours after single dose. […] Secondary endpoint efficacy assessments will be performed at 240 hours, 7 days, 14 days, and 28 days. Primary and secondary endpoints will be evaluated across all subjects.
The secondary endpoints to be evaluated, include, but are not limited to: • 1. Area under the concentration-time curve up to the last measurable concentration from time 0 to 7 days (AUC0-7days). Samples collected over 168 hours after single dose • 2. Time to maximum concentration (Tmax). Samples collected over 240 hours after single dose • 3. Terminal elimination rate constant. Samples collected over 240 hours after single dose • 4. Terminal elimination half-life. Samples collected over 240 hours after single dose • 5. Apparent clearance after extravascular administration (CL/F). Samples collected over 240 hours after single dose • 6. Apparent volume of distribution after extravascular administration (Vz/F). Samples collected over 240 hours after single dose • 7. Number of participants with adverse events or adverse events of special interest at days 14-28 • 8. Clinically significant change from baseline in vital signs at days 14-28 • 9. Clinically significant change from baseline in recorded triplicate 12-lead ECG at days 14-28 • 10. Number of participants who experience a clinically significant change from baseline in clinical laboratory assessments at days 14-28
The plasma concentration of apraglutide after administration of a single subcutaneous dose of 5 mg apraglutide was monitored over a period of 240 hours in both healthy subjects (Cohort 2) and subjects with severe CKD (Cohort 1) and is presented in FIG. 29.
Two outliers were identified (one in each Cohort) when analyzing the individual apraglutide plasma concentration curves. […]

A further data set has as its system healthy adult volunteers. In words: Safety in multiple dose study in healthy volunteers. Format: in vivo, human. Particulars: 1, 5 or 10 mg, 6 weekly SC doses.
Data set [3] concerns subjects with severe renal impairment. In words: Safety in Phase I renal impairment trial (Example 10). The class given is in vivo, human. Particulars: 5 mg single SC dose. The procedure:
as §1, §2
The secondary endpoints to be evaluated, include, but are not limited to: • 1. […] Clinically significant change from baseline in recorded triplicate 12-lead ECG at days 14-28 • 10. […]

The conditions of data set [4]: human, sc, 5 mg.
Excerpt: (§3) Plasma citrulline was used as a pharmacodynamic (“PD”) marker to describe the effect of apraglutide. Similar to the pharmacokinetic (“PK”) model development, the PK/PD model was developed for the healthy individuals from studies GLY-101-2015 and TA799-002 only. For development of the PD model, the PD observations were fitted together with the PK observations using the final PK model with its structure, residual error-, covariates- and random effects-models. The starting model was a turnover model where plasma citrulline was constantly synthesized and degraded with the synthesis rate ksyn and the degradation rate kdeg. Plasma apraglutide stimulated citrulline synthesis via a sigmoid Emax relationship with the baseline citrulline level R0, the half-maximal effect at the concentration EC50, the maximal effect Emax, and a Hill coefficient gamma. It was assumed that citrulline turnover was in steady state such that citrulline synthesis was determined solely by citrulline baseline and degradation. The population PK/PD of plasma apraglutide was established with data from two studies in healthy volunteers and two studies with SBS patients that tested doses between 2.5 and 50 mg SC.
(§4) The population PK/PD model was used to predict plasma apraglutide exposure and plasma citrulline trough concentration-time profiles with and without inter-individual variability for individuals with body weights between 40 and 120 kg receiving weekly doses of 2.5, 5, or 10 mg SC. […] Apraglutide exposure for body weights between 40 and 120 kg and apraglutide SC doses of 2.5, 5, or 10 mg was compared to post-hoc exposure estimates of SBS patients. Bracketing at a body weight of 50 kg between doses of 2.5 and 5 mg was simulated.
(§5) Plasma citrulline was described by a turnover model and maximal PD effect model.
The conditions of data set [5]: cited from earlier work.
Data set [6] can be described thus: Population PK/PD model of plasma apraglutide and plasma citrulline (healthy volunteers and SBS patients).
Excerpt: as §3, §4, §5
Setting [7] is: cohort without the two outliers.

Read-outs that look alike come from different tables or passages of the source. Square brackets hold non-standard residues; d marks the D form. Peptide text beside a SMILES is read from it. ξ: configuration not given here. Ile(3ξ) = CCC(C)[C@H](N)C(=O)O; Thr(3ξ) = CC(O)[C@H](N)C(=O)O; Nle = CCCC[C@H](N)C(=O)O

Description for healthy adult volunteers: The pharmacokinetic/pharmacodynamic (PK/PD) relationship between apraglutide, a novel long-acting GLP-2 analog in development for short bowel syndrome, and citrulline was evaluated in a randomized, double-blind, parallel arm, placebo-controlled, multiple dose study. 23 healthy adult volunteers received 6 weekly subcutaneous doses of apraglutide (1, 5, or 10 mg) or placebo and were followed for a further 6 weeks after the last dose. Blood collections were controlled for diet, lifestyle, and diurnal effects.

Regarding `CCCC[C@H](NC(=O)[C@H](CCC(=O)O)NC(=O)[C@H](CC(=O)O)NC(=O)[C@H](CO)NC(=O)[C@H](Cc1ccccc1)NC(=O)[C@H](CO)NC(=O)CNC(=O)[C@H](CC(=O)O)NC(=O)CNC(=O)[C@@H](N)Cc1c[nH]cn1)C(=O)N[C@H](Cc1ccccc1)C(=O)N[C@H](C(=O)N[C@H](C(=O)N[C@@H](CC(C)C)C(=O)N[C@@H](CC(=O)O)C(=O)N[C@@H](CC(C)C)C(=O)N[C@@H](CC(C)C)C(=O)N[C@@H](C)C(=O)N[C@@H](C)C(=O)N[C@@H](CCCNC(=N)N)C(=O)N[C@@H](CC(=O)O)C(=O)N[C@@H](Cc1ccccc1)C(=O)N[C@H](C(=O)N[C@@H](CC(N)=O)C(=O)N[C@@H](Cc1c[nH]c2ccccc12)C(=O)N[C@@H](CC(C)C)C(=O)N[C@H](C(=O)N[C@@H](CCC(N)=O)C(=O)N[C@H](C(=O)N[C@@H](CCCCN)C(=O)N[C@H](C(=O)N[C@H](C(=O)N[C@@H](CC(=O)O)C(N)=O)C(C)O)C(C)CC)C(C)O)C(C)CC)C(C)CC)C(C)CC)C(C)O` (stereo partly drawn) [apraglutide, L-histidyl-glycyl-L-aspartyl-glycyl-L-seryl-L-phenylalanyl-L-seryl-L-aspartyl-L-glutamyl-L-norleucyl-D-phenylalanyl-L-threonyl-Lisoleucyl-L-leucyl-L-aspartyl-L-leucyl-L-leucyl-L-alanyl-L-alanyl-L-arginyl-L-aspartyl-L-phenylalanyl-L-isoleucyl-L-asparaginyl-Ltryptophanyl-L-leucyl-L-isoleucyl-L-glutaminyl-L-threonyl-L-lysyl-L-isoleucyl-L-threonyl-Laspartic acid amide] (H-HGDGSFSDE[Nle][dF][Thr(3ξ)][Ile(3ξ)]LDLLAARDF[Ile(3ξ)]NWL[Ile(3ξ)]Q[Thr(3ξ)]K[Ile(3ξ)][Thr(3ξ)]D-NH2), in data set [1] (SBS-IF patients, SC, read-out: Time of maximum mean plasma concentration after dosing), the Tmax is 72 h. Further, the level at 168 h in data set [1] (5 mg treatment period) was found to be 4.5 ng/mL. The level at 168 h in data set [1] (10 mg treatment period) is 8.9 ng/mL. In data set [2] (entire subject population), the “Geometric mean ratio for AUCinf, severe renal impairment vs normal renal function” value is reported as 0.614 and the “Geometric mean ratio for Cmax, severe renal impairment vs normal renal function” value is 0.572. In addition, in data set [2] (outlier subjects removed), the “Geometric mean ratio for AUCinf, severe renal impairment vs normal renal function” value was found to be 0.849 and the “Geometric mean ratio for Cmax, severe renal impairment vs normal renal function” value worked out at 0.774. In data set [2] (setting [7]), the “Geometric Mean Ratio of AUCinf” value amounted to 0.849 and the “Geometric Mean Ratio of Cmax” value is listed as 0.774. Besides, in data set [2] (whole cohort), the “Geometric Mean Ratio of AUCinf” value came to 0.614 and the “Geometric Mean Ratio of Cmax” value is 0.572. In addition, in the data set with healthy adult volunteers, the “Safety and tolerability in words” value was “safe and well-tolerated with no serious AEs”. The “Safety in patients with severe CKD, in words” value in data set [3] is recorded as “safe to dose the patients with severe CKD with apraglutide 5 mg, without the risk of overdose”. The “Time of peak plasma concentration (Cmax), population PK/PD model estimate” value in data set [4] is reported as 1.39 days. Moreover, the “Intestinotrophic effect in animal models, in words” value in data set [5] was “promoted increase in intestinal length and weight, villus height and crypt depth”. Further, in data set [6], the “Body weight coefficient on clearance βC1/F/B,W” value was 1.8; the “Dose at which citrulline saturation appears” value is 5 mg; the “Dose coefficient on zero-order absorption duration βTk0,Dose” value is given as 0.249; the “Half-life, population PK estimate” value is 31.2 h. Further, the “Maximal effect (Emax) on citrulline synthesis” value in data set [6] is given as 0.626. Moreover, in data set [6] (70-kg individual, 5 mg SC), the “Central volume of distribution, population PK estimate” value was 31.5 L; the “Clearance, population PK estimate” value is reported as 16.8 L/day; the “Volume of distribution, population PK/PD model estimate” value is listed as 31.3 L. For the same compound, the “Half-maximal effective apraglutide concentration (EC50) on plasma citrulline” value in data set [6] (plasma concentration, Emax turnover model) amounted to 0.0137 µg/mL.
